Test results: PubChem BioAssay (NCI)
Several values for one entry are separate records, joined by “and”; a condition that tells them apart may be missing. Equal entries are not always repeated.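 Method: 48-hour compound exposure of cells in 96-well plates, five concentrations, linear interpolation of endpoints. GI50: concentration for 50% inhibition of growth. TGI: total growth inhibition.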

How the values were obtained:
Test in all cases: NCI tumour cell line growth inhibition, 48 h
[1] = tested on: SNB-19 CNS
[2] = tested on: UO-31 renal
[3] = tested on: SNB-75 CNS
[4] = tested on: SK-OV-3 ovarian
[5] = tested on: CAKI-1 renal
[6] = tested on: XF 498 CNS
[7] = tested on: P388/ADR leukemia
[8] = tested on: RXF 393 renal
[9] = tested on: HS 578T breast
[10] = tested on: RPMI-8226 leukemia
[11] = tested on: KM20L2 colon
[12] = tested on: MDA-MB-435
[13] = tested on: OVCAR-8 ovarian
[14] = tested on: OVCAR-3 ovarian
[15] = tested on: OVCAR-5 ovarian
[16] = tested on: MDA-MB-231 breast
[17] = tested on: DMS 273 small cell lung
[18] = tested on: SR leukemia
[19] = tested on: MALME-3M melanoma
[20] = tested on: PC-3 prostate
[21] = tested on: P388 leukemia
[22] = tested on: NCI-H226 lung
[23] = tested on: KM12 colon
[24] = tested on: HCT-116 colon
[25] = tested on: HOP-92 NSCLC
[26] = tested on: SK-MEL-5 melanoma
[27] = tested on: 786-0 renal
[28] = tested on: HL-60(TB) leukemia
[29] = tested on: SF-268 CNS
[30] = tested on: DMS 114 small cell lung
[31] = tested on: NCI-H460 lung
[32] = tested on: HCT-15 colon
[33] = tested on: SN12C renal
[34] = tested on: TK-10 renal
[35] = tested on: HOP-18 NSCLC
[36] = tested on: A498 renal
[37] = tested on: M14 melanoma
[38] = tested on: SF-295 CNS
[39] = tested on: MOLT-4 leukemia
[40] = tested on: SN12K1 renal
[41] = tested on: SF-539 CNS
[42] = tested on: MCF7 breast
[43] = tested on: HCC-2998 colon
[44] = tested on: A549 NSCLC
[45] = tested on: SK-MEL-28 melanoma
[46] = tested on: HOP-62 NSCLC
[47] = tested on: U251 CNS
[48] = tested on: MDA-N
[49] = tested on: LOX IMVI melanoma
[50] = tested on: OVCAR-4 ovarian
[51] = tested on: IGROV1 ovarian
[52] = tested on: SNB-78 CNS
[53] = tested on: SK-MEL-2 melanoma
[54] = tested on: NCI/ADR-RES ovarian
[55] = tested on: UACC-257 melanoma
[56] = tested on: K-562 leukemia
[57] = tested on: CCRF-CEM leukemia
[58] = tested on: T-47D breast
[59] = tested on: ACHN renal
[60] = tested on: NCI-H23 lung
[61] = tested on: HT29 colon
[62] = tested on: COLO 205 colon
[63] = tested on: BT-549 breast
[64] = tested on: DU-145 prostate
[65] = tested on: SW-620 colon
[66] = tested on: EKVX NSCLC
[67] = tested on: DLD-1 colon
[68] = tested on: UACC-62 melanoma
[69] = tested on: NCI-H522 lung
[70] = tested on: M19-MEL melanoma

NC(=O)c1ncn2c(=O)n(CCCl)nnc12
GI50 [1]: 69 µM | TGI [1]: 995 µM | TGI [2]: 521 µM | GI50 [3]: 23.7 µM | TGI [3]: 205 µM | TGI [4]: 130 µM | GI50 [5]: 91.4 µM | TGI [5]: 548 µM | TGI [6]: 149 µM | TGI [7]: 335 µM | TGI [8]: 337 µM | TGI [9]: 695 µM | TGI [10]: 1250 µM | TGI [11]: 319 µM | TGI [12]: 388 µM | TGI [13]: 426 µM | TGI [14]: 475 µM | TGI [15]: 608 µM | TGI [16]: 584 µM | TGI [17]: 275 µM | GI50 [18]: 57.9 µM | TGI [18]: 801 µM | TGI [19]: 346 µM | TGI [20]: 534 µM | TGI [21]: 482 µM | TGI [22]: 425 µM | GI50 [23]: > 92.4 µM | TGI [23]: 408 µM | TGI [24]: 369 µM | TGI [25]: 408 µM | TGI [26]: 324 µM | GI50 [27]: 46.4 µM | TGI [27]: 195 µM | TGI [28]: 223 µM | GI50 [29]: 10.7 µM | TGI [29]: > 45 µM and 709 µM | TGI [30]: 131 µM | TGI [31]: 221 µM | TGI [32]: 521 µM | TGI [33]: 546 µM | TGI [34]: 651 µM | TGI [35]: 1130 µM | TGI [36]: 375 µM | TGI [37]: 500 µM | GI50 [38]: > 68 µM | TGI [38]: 239 µM | GI50 [39]: 37.2 µM | TGI [39]: 567 µM | TGI [40]: 266 µM | TGI [41]: 164 µM | GI50 [42]: 68.3 µM | TGI [42]: 379 µM | TGI [43]: 366 µM | TGI [44]: 628 µM | TGI [45]: 562 µM | GI50 [46]: 53.4 µM | TGI [46]: 139 µM | GI50 [47]: 99.2 µM | TGI [47]: 447 µM | TGI [48]: 338 µM | TGI [49]: 279 µM | GI50 [50]: > 69.4 µM | TGI [50]: 437 µM | TGI [51]: 482 µM | TGI [52]: 527 µM | TGI [53]: 511 µM | TGI [54]: 496 µM | TGI [55]: 391 µM | TGI [56]: 642 µM | GI50 [57]: > 62.9 µM | TGI [57]: 440 µM | TGI [58]: 941 µM | GI50 [59]: > 71.2 µM | TGI [59]: 385 µM | GI50 [60]: > 72.8 µM | TGI [60]: 330 µM | TGI [61]: 367 µM | TGI [62]: 305 µM | TGI [63]: 306 µM | TGI [64]: 520 µM | GI50 [65]: 51.2 µM | TGI [65]: 822 µM | TGI [66]: 436 µM | TGI [67]: 720 µM | GI50 [68]: 44.9 µM | TGI [68]: 137 µM | TGI [69]: 384 µM | TGI [70]: 376 µM
